Test results reported in PMC7524750, “Dual COX and 5-LOX inhibition by clerodane diterpenes from seeds of Polyalthia longifolia (Sonn.) Thwaites” (Scientific Reports, 2020).
Like-named read-outs stand apart in the source and are kept apart here.

What was measured:
COX-2 = target: T1, COX-2 (Homo sapiens, UniProt P35354); assay: Cyclooxygenase COX-2 inhibitory assay (Cayman COX inhibitor assay kit); type: biochemical; settings: mean ± SD, n=3; for inhibition at 2.5 µg/mL / inhibition at 5 µg/mL / inhibition at 7.5 µg/mL / inhibition at 10 µg/mL: read-out: Percentage inhibition COX2
T1 construct: purchased Cayman 560131
T1 sequence (P35354 18-604): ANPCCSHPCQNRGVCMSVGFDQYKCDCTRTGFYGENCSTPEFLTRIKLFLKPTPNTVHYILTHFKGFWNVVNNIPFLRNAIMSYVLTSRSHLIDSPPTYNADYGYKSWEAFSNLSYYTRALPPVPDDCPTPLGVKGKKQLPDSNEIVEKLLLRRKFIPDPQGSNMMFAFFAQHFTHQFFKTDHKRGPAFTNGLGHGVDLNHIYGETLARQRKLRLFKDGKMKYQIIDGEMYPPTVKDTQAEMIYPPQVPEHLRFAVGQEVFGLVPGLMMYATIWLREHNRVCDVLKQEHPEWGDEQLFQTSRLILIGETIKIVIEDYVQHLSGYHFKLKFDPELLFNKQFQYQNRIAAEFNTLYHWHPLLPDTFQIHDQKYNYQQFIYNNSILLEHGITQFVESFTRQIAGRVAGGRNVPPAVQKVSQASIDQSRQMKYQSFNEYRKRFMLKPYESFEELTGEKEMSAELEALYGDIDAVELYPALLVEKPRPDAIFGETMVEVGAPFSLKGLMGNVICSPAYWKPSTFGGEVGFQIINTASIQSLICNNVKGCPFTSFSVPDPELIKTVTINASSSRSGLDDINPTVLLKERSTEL
Method: (§1) To 10 µl of either COX1 or COX2 added 0.1 M Tris–HCl buffer (960 µl) and different known concentrations of test samples and incubated at 37 °C for 10 min. Later 10 µl of 100 µM arachidonic acid, after 2 min 1 M HCl of 50 µl and Ellman’s reagent, were added. The absorbance was measured spectrophotometrically at 410 nm against the blank. The percentage of inhibition was deliberated with the absorbance values, and IC50 values were calculated by linear regression.

COX-1 = target: T2, COX-1 (Ovis aries, UniProt P05979); assay: Cyclooxygenase COX-1 inhibitory assay (Cayman COX inhibitor assay kit); type: biochemical, ovine; settings: mean ± SD, n=3; for inhibition at 2.5 µg/mL / inhibition at 5 µg/mL / inhibition at 7.5 µg/mL / inhibition at 10 µg/mL: read-out: Percentage inhibition COX1
T2 construct: purchased Cayman 560131
T2 sequence (P05979 25-600): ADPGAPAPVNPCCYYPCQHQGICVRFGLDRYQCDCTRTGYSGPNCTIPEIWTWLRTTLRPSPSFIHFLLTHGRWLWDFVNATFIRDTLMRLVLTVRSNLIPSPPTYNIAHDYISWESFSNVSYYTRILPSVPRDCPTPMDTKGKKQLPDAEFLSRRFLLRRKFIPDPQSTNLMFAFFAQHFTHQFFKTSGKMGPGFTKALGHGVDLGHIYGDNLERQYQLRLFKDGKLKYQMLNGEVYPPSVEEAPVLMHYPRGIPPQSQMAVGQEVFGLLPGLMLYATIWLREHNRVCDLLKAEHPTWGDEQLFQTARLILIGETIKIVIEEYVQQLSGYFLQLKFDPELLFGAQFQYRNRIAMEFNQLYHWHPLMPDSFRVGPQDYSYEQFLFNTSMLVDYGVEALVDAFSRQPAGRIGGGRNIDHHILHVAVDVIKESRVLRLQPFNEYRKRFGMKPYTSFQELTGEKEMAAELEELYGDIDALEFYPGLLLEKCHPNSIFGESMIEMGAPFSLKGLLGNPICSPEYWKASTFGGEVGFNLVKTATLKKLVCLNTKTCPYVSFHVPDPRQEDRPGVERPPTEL
Method: as §1

[1] = target: T3, 5-LOX (human recombinant) (Homo sapiens, UniProt P09917); assay: 5-lipoxygenase inhibitory assay (5-LOX assay kit); type: biochemical; settings: mean ± SD, n=3; for inhibition at 2.5 µg/mL / inhibition at 5 µg/mL / inhibition at 7.5 µg/mL / inhibition at 10 µg/mL: read-out: Percentage inhibition 5-LOX
T3 construct: purchased Sigma Aldrich 437996
T3 sequence (P09917 1-674): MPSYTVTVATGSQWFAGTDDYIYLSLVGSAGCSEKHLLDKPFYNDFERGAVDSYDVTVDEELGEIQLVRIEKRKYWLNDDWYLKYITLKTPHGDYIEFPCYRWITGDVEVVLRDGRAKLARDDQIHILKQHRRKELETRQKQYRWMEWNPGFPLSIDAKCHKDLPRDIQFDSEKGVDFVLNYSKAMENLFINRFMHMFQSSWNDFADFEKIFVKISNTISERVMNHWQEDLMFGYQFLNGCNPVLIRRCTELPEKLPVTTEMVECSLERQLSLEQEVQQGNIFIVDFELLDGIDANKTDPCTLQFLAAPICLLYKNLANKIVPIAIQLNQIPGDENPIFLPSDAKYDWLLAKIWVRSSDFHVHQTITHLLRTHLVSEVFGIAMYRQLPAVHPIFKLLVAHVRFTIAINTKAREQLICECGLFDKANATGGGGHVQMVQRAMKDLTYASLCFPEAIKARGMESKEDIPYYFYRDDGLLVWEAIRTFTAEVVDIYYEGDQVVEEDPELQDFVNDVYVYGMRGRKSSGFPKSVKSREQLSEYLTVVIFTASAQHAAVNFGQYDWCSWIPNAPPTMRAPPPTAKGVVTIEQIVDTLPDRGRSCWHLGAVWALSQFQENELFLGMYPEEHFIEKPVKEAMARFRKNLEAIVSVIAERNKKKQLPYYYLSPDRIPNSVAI
Method: To 90 µl of 5-LOX enzyme solution added different test sample concentrations, 100 µl of de chromogen, and finally added 10 µl of the substrate (arachidonic acid) and gently shake or 10 min and absorbance was measured at 490 nm against the blank. The % inhibition was deliberated with the absorbance values by which IC50 values were calculated by linear regression.

[2] = linear regression, read-out: IC50 values COX2 (converted)
[3] = linear regression, read-out: IC50 values COX1 (converted)
[4] = IC50 5-LOX (concentration required for 50% inhibition), Fig. 2
[5] = linear regression, read-out: IC50 values 5-LOX (converted)

inhibition at 2.5 µg/mL (COX-2) [%]	inhibition at 5 µg/mL (COX-2) [%]	inhibition at 7.5 µg/mL (COX-2) [%]	inhibition at 10 µg/mL (COX-2) [%]	IC50 (COX-2; Fig. 2, read-out: IC50 COX-2) [µM]	IC50 (COX-2; [2]) [µM]	inhibition at 2.5 µg/mL (COX-1) [%]	inhibition at 5 µg/mL (COX-1) [%]	inhibition at 7.5 µg/mL (COX-1) [%]	inhibition at 10 µg/mL (COX-1) [%]	IC50 (COX-1; Fig. 2, read-out: IC50 COX-1) [µM]	IC50 (COX-1; [3]) [µM]	inhibition at 2.5 µg/mL [1] [%]	inhibition at 5 µg/mL [1] [%]	inhibition at 7.5 µg/mL [1] [%]	inhibition at 10 µg/mL [1] [%]	IC50 [1, 4] [µM]	IC50 [1, 5] [µM]	Compound
36.8 ± 2.52	55.21 ± 0.43	67.1 ± 2.47	75.1 ± 2.73	12.8 ± 0.21	12.8	40.8 ± 0.79	61.1 ± 0.69	72.3 ± 3.77	79.5 ± 2.53	10.8 ± 0.17	10.9	23.2 ± 2.28	44.3 ± 1.68	55.4 ± 0.65	67.2 ± 2.67	16.9 ± 0.56	17	C=C1C(O)CCC2C1(C)CCC(C)C2(C)CCC1=CC(=O)OC1O (stereo not drawn) [Compound 4, 3α,16α-dihydroxy-cleroda-4(18),13(14)Z-dien-15,16-olide]
48.8 ± 0.96	63.2 ± 1.41	73.3 ± 1.15	82.97 ± 0.44	8.49 ± 0.55	8.51	38.1 ± 0.72	61.5 ± 1.84	68.3 ± 2.99	83.9 ± 2.27	11.8 ± 0.19	11.8	34.7 ± 1.47	59.3 ± 0.66	77.5 ± 0.92	85 ± 1.05	12.7 ± 0.21	12.7	C=C1CCCC2C1(C)CCC(C)C2(C)CCC1=CC(=O)OC1O (stereo not shown) [Compound 3, 16-hydroxy-cleroda-4(18),13-dien-16,15-olide]
–	–	–	–	–	–	–	–	–	–	–	–	12.4 ± 1.49	23.1 ± 4.16	42.8 ± 1.82	64.4 ± 0.72	–	–	O=C(O)Cc1ccccc1Nc1c(Cl)cccc1Cl [Diclofenac, reference compound]
34.5 ± 2.11	59.2 ± 0.77	77.4 ± 0.9	85 ± 1.17	12.7 ± 0.34	12.7	16.3 ± 3	28.3 ± 3.1	42.5 ± 1.68	50.9 ± 0.6	30.44 ± 0.3	30.4	12.5 ± 1.45	24.5 ± 1.92	40 ± 4.41	51.2 ± 1.35	30.5 ± 0.53	30.5	CC1=CCCC2C1(C)CCC(C)C2(C)CCC(=CC(=O)O)CO (stereo not shown) [Compound 2, 16-hydroxy-cleroda-3,13-dien-15-oic acid]
46.6 ± 0.9	57.2 ± 1.57	69.3 ± 3.66	79.4 ± 4.39	10.3 ± 0.26	10.3	42.3 ± 2.05	79.5 ± 1.01	86.5 ± 1.27	92.9 ± 2.46	9.46 ± 0.33	9.45	30 ± 1.04	54.1 ± 1.1	67.2 ± 4.61	75.8 ± 2.97	14.4 ± 0.32	14.4	CC1=CCCC2C1(C)CCC(C)C2(C)CCC1=CC(=O)OC1O (stereo not drawn) [Compound 5, 16α-hydroxy-cleroda-3,13(14)Z-dien-15,16-olide]

Compound	inhibition at 2.5 µg/mL (COX-2) [%]	inhibition at 5 µg/mL (COX-2) [%]	inhibition at 7.5 µg/mL (COX-2) [%]	inhibition at 10 µg/mL (COX-2) [%]	IC50 (COX-2; Fig. 2, read-out: IC50 COX-2) [µM]	IC50 (COX-2; [2]) [µM]	inhibition at 2.5 µg/mL (COX-1) [%]	inhibition at 5 µg/mL (COX-1) [%]	inhibition at 7.5 µg/mL (COX-1) [%]	inhibition at 10 µg/mL (COX-1) [%]	IC50 (COX-1; Fig. 2, read-out: IC50 COX-1) [µM]	IC50 (COX-1; [3]) [µM]	inhibition at 2.5 µg/mL [1] [%]	inhibition at 5 µg/mL [1] [%]	inhibition at 7.5 µg/mL [1] [%]	inhibition at 10 µg/mL [1] [%]	IC50 [1, 4] [µM]	IC50 [1, 5] [µM]
CC1=CCCC2C1(C)CCC(C)C2(C)CCC(C=O)=CC(=O)O (stereo not shown) [Compound 1, 16-oxo-cleroda-3,13(14)E-dien-15-oic acid]	10.7 ± 2.91	23.4 ± 3.07	42.8 ± 0.72	62.9 ± 3.84	26.4 ± 0.45	26.4	21.8 ± 1.55	40.3 ± 3.77	47.1 ± 2.71	60.4 ± 4.48	25.1 ± 0.99	25.1	13.4 ± 0.72	25.7 ± 2.74	41.1 ± 1.43	65.4 ± 0.93	26.4 ± 0.39	26.4
